Measurements from patent US12404332B2, “Methods for diagnosing and treating cancers” (Research Development Foundation, priority 2020, dated 2025).

Tests used:
B16 tumors = assay: B16 tumor challenge in mice treated with chlorambucil; format: in vivo, mouse
From the text: Mice and in vivo treatments: Wild-type (WT) C57BL/6 mice NSG were purchased from Jackson Labs (Bar Harbor, ME), bred in our animal facility and used at 7-20 weeks old. All mice were given ad libitum water and food and housed under specific pathogen-free conditions. Mice used here were matched for sex and age in each experiment. 1×10^5 control or PD-L1^KOB16 cells were given subcutaneously (SQ, both sexes). 4×10^6 control or PD-L1^lo ID8agg cells in log growth phase were given intraperitoneally (females only). B16 tumor growth was measured with Vernier calipers and volume was calculated as (length×width^2)/2. Intraperitoneal ID8agg tumor growth was determined by IVIS Lumina Imaging System (Perkin Elmer; Waltham, MA) 15 minutes after i.p. injection of 3 mg of PBS-dissolved d-luciferin K+ (Gold Biotechnology; St. Louis, MO) with 30 second exposures, medium binning, and F/stop=1. Identical regions of interest were drawn over each subject's abdomen and average radiance (photons/see/cm2/sr) was quantified with Living Image software version 4.2. Body weight was measured every week for PD-L1^lo ID8agg mice as a surrogate for tumor growth, and tumors were weighed at end-experiment in confirmation. Survival was determined as >1500 mm^3 for SQ tumors and distress or >20% mouse weight gain for PD-L1^lo ID8agg tumors. […]

B16 cells = assay: Tumor-initiating cell (TIC) flow cytometry, B16 cells; format: cell-based, mouse
Protocol: FIGS. 40A-C: CAMB suppresses mTORC1 signals and reduces TIC numbers. FIG. 40A, Western blots for proteins in the mTORC1 pathway. Cells were treated with chlorambucil as indicated concentration for 48 hours. FIG. 40B, Western blot for LC3I/II to assess autophagy in cell lysates treated±chlorambucil at indicated concentrations. FIG. 40C, Percent of ALDH^hi TIC by flow cytometry of ES2 cells cultured±chlorambucil. Percent CD44^+CD24^+ ID8agg TIC and CD44^+CD133^+CD24^+ B16 TIC detected by flow cytometry.
(§1) Flow cytometry: Mice were sacrificed by cervical dislocation after induction of deep isoflurane anesthesia. ID8agg tumors were collected and cells were stained as described (Derup et al., 2020) using LSR II hardware and analyzed by FACS Diva (BD Bioscience) or Flow Jo software (Flow Jo, LLC). Anti-mouse (clone 10F.9G2) and human (clone 29E.2A3) PD-L1 [both PE/Cy7, Cat #124314 (mouse) 329718 (human)] were matched with isotype control. Apoptosis assessment used Annexin V and propidium iodide (Thermo Scientific) per manufacturer instruction.

ID8agg and B16 cells = assay: Chlorambucil in vitro cell growth, viability, apoptosis and calreticulin; format: cell-based, mouse
Protocol: FIGS. 34A-D: FIG. 34A, Cells cultured in vitro with chlorambucil at indicated concentrations and counts determined on Vi-Cell. p-value, unpaired t-test. VC, vehicle control. FIG. 34B, Annexin V-FITC/PI (AV/PI) dual staining assay. Upper left, necrotic cells). Lower left, live cells. Lower right, early apoptotic cells and upper right, late apoptotic cells. ID8agg (CAMB 5 μM) and B16 (CAMB 10 μM) cells were treated for 48 hours. FIG. 34C, CAMB-treated ID8agg and B16 cells stained with an isotype control or an anti-calreticulin (CRT) antibody followed by immunofluorescence cytometry. FIG. 34D, Tumor cells were treated with the indicated concentrations with CAMB 48 h. Cell viability was detected by CCK-8 assay and relative cell viability ratio were compared between WT cells and PD-L1KO or PD-Lllo cells at different concentration point.
Cell proliferation and viability assays: Cells (0.5-1×10^3) were plated in 96-well plastic culture plates in 100 μL medium and treated with CAMB. Cell viability was determined by a cell counting kit-8 (CCK-8) (Sigma). Absorbance was measured at 450 nm using a BioTek Synergy 2 Multi-Mode Plate Reader. Proliferation was assessed in triplicate in three separate experiments for in vitro all data shown.
as §1

SMILES: O=C(O)CCCc1ccc(N(CCCl)CCCl)cc1 [chlorambucil]
- treatment efficacy in PD-L1^KO B16 challenge (B16 tumors; WT mice): significantly reduced
- treatment of tumors (B16 tumors; severely immunodeficient NSG mice, B16): effectively treated both
- CD44^+CD24^+ TIC population (B16 cells): significantly reduced
- cell growth in vitro (ID8agg and B16 cells): inhibited cell growth in vitro with little or no killing
- cell surface calreticulin (ID8agg and B16 cells): significantly increased
- immunogenic cell death (ICD) (ID8agg and B16 cells): induced ICD independent of tumor PD-L1 status
- sensitivity of CTRL cells compared with PD-L1^lo or PD-L1^KO cells (ID8agg and B16 cells): more sensitive
- apoptosis (ID8agg and B16 cells; ID8agg or B16 cells): did not induce apoptosis
